Experimental data taken from patent US20110212040A1, “STABILIZED SUNSCREEN COMPOSITIONS” (priority 2010, published 2011).
Entries after “also recorded” stand apart in the source; their conditions may differ.

Legend:
Format in all cases: physicochemical
[1] = Stabilization of avobenzone in presence of single carotenoids; conditions: for protective activity vs avobenzone degradation: lycopene 1.6 mg/mL in squalane
Procedure: (§1) Key elements for this test are: consistent irradiation (known and consistent light source and positioning of samples with respect to the light source); optimal exposure of the sample to UV light (thin but consistent layer sample, in a flat vessel with no high walls which could screen out UV light); consistent sampling (especially recovery of irradiated material for analysis). Under the instant method, irradiation takes place in the Innova 4340 incubator, fitted with UV tubes (UVC: Osram Puritec-HNS3OVG13-G30T8/OF; UVB: Voltarc E312/F30T8; UVA: Sylvania F30T8/350BL)—allowing for intense, known, reproducible and even irradiation (a known illuminant is the single source of light—a wide light source and the incubator's metallic walls also help achieve even illumination). Samples are exposed in Brand plastic vial caps made of polyethylene, 26 mm diameter, 5 mm wall height, 400 μL sample volume, in triplicates, generally introduced as solutions in suitable oil carriers)—enabling irradiation of a relatively even and thin layer while allowing consistent sample recovery.
(§2) Analysis of the avobenzone content of the samples was done by UV spectroscopy (absorption @ 350 nm for avobenzone; sample dilution ×400 in hexanes). As phytofluene absorbs in the UV range relevant to our measure of avobenzone, blank TCLC samples (i.e. without avobenzone) were irradiated in parallel with test samples and absorption @ 350 nm was measured before and after irradiation. This absorption was deducted from the avobenzone absorption data, producing the corrected data shown here (unless noted otherwise).
Based on the above results, degradation of avobenzone was next measured in the presence of single carotenoids, specifically: phytoene (PE), phytofluene (PF), zeta-carotene (ZC) and Lycopene (LY).
Carotenoids levels: for the purposes of these experiments, phytoene was tested at 1.3 mg/mL; phytofluene was tested at 0.3 mg/mL; zeta-carotene and lycopene were tested at 1.6 mg/mL.
Irradiation was carried out with combined UVA+UVB (4:2, 18 h) and UVA+UVB+UVC (3:2:1, 10 h).

[2] = 3% avobenzone cream, in vitro SPF/UVA-PF and photo stability (Colipa 2009); conditions: UVA dose 10 J/cm^2, Suntest
Procedure: Following the convincing results from the studies described above, a preliminary study with a basic cream containing 3% avobenzone labelled 703-1, to which phytoene and phytofluene (0.0075%), was added and labelled 703-2, was conducted to determine the contribution of phytofluene to sun protection and photo stability of avobenzone under UVA following the Colipa 2009 in vitro Standard Guidelines. Approximately 1.7 mg/cm^2 of each composition is applied to 5 PMMA plates (Helioplates-HD-6, Helioscreen®, Source: Labsphere, North Sutton, N.H.), respectively, and allowed to equilibrate for at least 15 minutes. Absorbance spectra from 5 locations on each plate are measured using a UV2000 Sunscreen Analyzer (Labsphere, North Sutton, N.H.). […] Plate temperatures are 25-35° C. Mean UVA protection factors at each UV dose are then computed for each test product, using Colipa UVA Protection Factor Test Method Spreadsheet, and mean absorbance spectra from 290 to 400 nm is obtained.

[3] = UV absorbance spectra / absorption maximum; conditions: FIG. 10
[4] = Effect of phytoene/phytofluene levels and ratio variations on avobenzone stabilization; conditions: combined UVA+UVB+UVC 10 h; low 0.3 mg/mL, high 1.3 mg/mL; listed as PE
Procedure: as §1, with “Samples are exposed in Brand plastic vial caps made of polyethylene, 26 mm diameter, 5 mm wall height, 400 μL sample volume, in triplicates, generally introduced as solutions in suitable oil carriers)—enabling irradiation of a relatively even and thin layer while allowing consistent sample recovery.” left out
as §2, with “This absorption was deducted from the avobenzone absorption data, producing the corrected data shown here (unless noted otherwise).” left out

CC(C)=CCC/C(C)=C/C=C/C(C)=C/C=C/C(C)=C/C=C/C=C(C)/C=C/C=C(C)/C=C/C=C(\C)CCC=C(C)C [Lycopene]
protective activity vs avobenzone degradation ([1]; combined UVA+UVB 4:2, 18 h): slight protective activity | protective activity vs avobenzone degradation ([1]; combined UVA+UVB+UVC 3:2:1, 10 h): no significant activity

CC(C)=CCC/C(C)=C/CC/C(C)=C/C=C/C(C)=C/C=C/C=C(\C)CC/C=C(\C)CC/C=C(\C)CCC=C(C)C [phytofluene]
boost to UVA-PF [2]: addition to UVA-Pf | λmax of absorbance spectra [3]: 348 nm

CC(C)=CCC/C(C)=C/CC/C(C)=C/C=C/C(C)=C/C=C/C=C(C)/C=C/C=C(\C)CC/C=C(\C)CCC=C(C)C [Zeta-carotene, zeta-carotene]
stabilizing / protective effect on avobenzone ([1]; UVA+UVB (18 h) and UVA+UVB+UVC (10 h), not distinguished, phytoene 1.3, phytofluene 0.3, zeta-carotene 1.6 mg/mL): some protective activity

CC(C)=CCC/C(C)=C/CC/C(C)=C/CC/C(C)=C/C=C/C=C(\C)CC/C=C(\C)CC/C=C(\C)CCC=C(C)C [phytoene]
λmax of absorbance spectra [3]: 286 nm | protective activity vs degradation of avobenzone [4]: level-dependent; also recorded: roughly comparable activities
